Data: the supplement of paper PMC10307832

Key:
Test in all cases: relative viability (nuclei count vs DMSO), 5 days (fraction); higher = more cells survive
Afatinib + Vorinostat = compound: CN(C)C/C=C/C(=O)Nc1cc2c(Nc3ccc(F)c(Cl)c3)ncnc2cc1O[C@H]1CCOC1 [Afatinib] + O=C(CCCCCCC(=O)Nc1ccccc1)NO [Vorinostat] (partner 1 µM)
Method in brief: (§1)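 Lung cancer cell lines were seeded in 1536-well plates and dosed by pin tool the next day, with either a single drug or a fixed anchor-drug dose combined with five library-drug doses (not always all listed) spaced in √10 steps. Five days later, one step fixed the cells and stained their nuclei (final 0.05% Triton X-100, 1% formaldehyde, 1 ug/ml Hoechst), and nuclei were counted on 4× images. Relative viability is the nuclei count in treated wells divided by the count in vehicle wells, and each value is the median of duplicate plates.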

Afatinib + Linsitinib = compound: CN(C)C/C=C/C(=O)Nc1cc2c(Nc3ccc(F)c(Cl)c3)ncnc2cc1O[C@H]1CCOC1 [Afatinib] + C[C@]1(O)C[C@@H](c2nc(-c3ccc4ccc(-c5ccccc5)nc4c3)c3c(N)nccn32)C1 [Linsitinib] (partner 1 µM)
Method in brief: as §1

Afatinib + Navitoclax = compound: CN(C)C/C=C/C(=O)Nc1cc2c(Nc3ccc(F)c(Cl)c3)ncnc2cc1O[C@H]1CCOC1 [Afatinib] + CC1(C)CCC(c2ccc(Cl)cc2)=C(CN2CCN(c3ccc(C(=O)NS(=O)(=O)c4ccc(N[C@H](CCN5CCOCC5)CSc5ccccc5)c(S(=O)(=O)C(F)(F)F)c4)cc3)CC2)C1 [Navitoclax] (partner 0.5 µM)
Method in brief: as §1

Afatinib + Alpelisib = compound: CN(C)C/C=C/C(=O)Nc1cc2c(Nc3ccc(F)c(Cl)c3)ncnc2cc1O[C@H]1CCOC1 [Afatinib] + Cc1nc(NC(=O)N2CCC[C@H]2C(N)=O)sc1-c1ccnc(C(C)(C)C(F)(F)F)c1 [Alpelisib] (partner 2 µM)
Method in brief: as §1

Row | Cell Line | relative viability (Afatinib + Vorinostat; first compound 0.005 µM) | relative viability (Afatinib + Vorinostat; first compound 0.01581 µM) | relative viability (Afatinib + Vorinostat; first compound 0.05 µM) | relative viability (Afatinib + Vorinostat; first compound 0.1581 µM) | relative viability (Afatinib + Vorinostat; first compound 0.5 µM) | relative viability (Afatinib + Linsitinib; first compound 0.005 µM) | relative viability (Afatinib + Linsitinib; first compound 0.01581 µM) | relative viability (Afatinib + Linsitinib; first compound 0.05 µM) | relative viability (Afatinib + Linsitinib; first compound 0.1581 µM) | relative viability (Afatinib + Linsitinib; first compound 0.5 µM) | relative viability (Afatinib + Navitoclax; first compound 0.005 µM) | relative viability (Afatinib + Navitoclax; first compound 0.01581 µM) | relative viability (Afatinib + Navitoclax; first compound 0.05 µM) | relative viability (Afatinib + Navitoclax; first compound 0.1581 µM) | relative viability (Afatinib + Navitoclax; first compound 0.5 µM) | relative viability (Afatinib + Alpelisib; first compound 0.005 µM) | relative viability (Afatinib + Alpelisib; first compound 0.01581 µM) | relative viability (Afatinib + Alpelisib; first compound 0.05 µM) | relative viability (Afatinib + Alpelisib; first compound 0.1581 µM) | relative viability (Afatinib + Alpelisib; first compound 0.5 µM)
1 | LU99A | 0.467 | 0.61 | 0.487 | 0.419 | 0.502 | 0.509 | 0.562 | 0.488 | 0.453 | 0.477 | 0.859 | 0.706 | 0.797 | 0.793 | 0.883 | 0.557 | 0.468 | 0.438 | 0.452 | 0.489
2 | NCI-H647 | 0.493 | 0.513 | 0.595 | 0.523 | 0.524 | 1.1 | 1.22 | 1.24 | 1.27 | 1.18 | 1.09 | 0.951 | 1.16 | 1.13 | 1.39 | 1.22 | 1.13 | 1.17 | 1.03 | 1.05
3 | A-427 | 0.929 | 0.89 | 0.848 | 0.833 | 0.908 | 1.1 | 1.15 | 1.11 | 1.08 | 1.07 | 1.01 | 0.997 | 1.05 | 0.965 | 0.992 | 1.04 | 1.11 | 1.18 | 0.973 | 1.09
4 | COR-L 105 | 0.667 | 0.386 | 0.47 | 0.336 | 0.386 | 0.418 | 0.207 | 0.403 | 0.258 | 0.278 | 0.444 | 0.373 | 0.315 | 0.293 | 0.26 | 0.934 | 0.45 | 0.353 | 0.255 | 0.241
5 | NCI-H441 | 0.791 | 0.94 | 0.737 | 0.878 | 0.698 | 0.529 | 0.523 | 0.516 | 0.503 | 0.425 | 0.904 | 0.516 | 0.446 | 0.399 | 0.294 | 0.831 | 0.763 | 0.751 | 0.581 | 0.626
6 | NCI-H2126 | 0.732 | 0.683 | 0.617 | 0.43 | 0.481 | 0.724 | 0.701 | 0.583 | 0.465 | 0.424 | 0.836 | 0.854 | 0.829 | 0.441 | 0.411 | 0.726 | 0.722 | 0.653 | 0.504 | 0.444
7 | HCC-44 | 1.18 | 1.09 | 1.18 | 1.1 | 1.05 | 0.63 | 0.659 | 0.702 | 0.593 | 0.669 | 1.01 | 1.01 | 1.02 | 0.899 | 1.13 | 0.803 | 0.854 | 0.727 | 0.728 | 0.872
8 | NCI-H460 | 0.892 | 0.767 | 0.722 | 0.702 | 0.686 | 0.74 | 0.713 | 0.905 | 0.866 | 0.796 | 1.21 | 1.06 | 1.14 | 1.18 | 1.11 | 0.52 | 0.509 | 0.484 | 0.543 | 0.349
9 | SK-LU-1 | 0.727 | 0.806 | 0.767 | 0.771 | 0.738 | 1.39 | 1.11 | 1.2 | 1.02 | 1.01 | 0.98 | 0.719 | 0.757 | 0.861 | 0.842 | 1.38 | 0.918 | 1.06 | 1.1 | 0.913
10 | NCI-H322M | 0.825 | 0.506 | 0.658 | 0.61 | 0.567 | 0.847 | 0.616 | 0.468 | 0.419 | 0.588 | 1.28 | 0.864 | 0.586 | 0.405 | 0.371 | 0.666 | 0.519 | 0.495 | 0.384 | 0.335
11 | EKVX | 0.588 | 0.385 | 0.284 | 0.31 | 0.276 | 0.702 | 0.768 | 0.421 | 0.171 | 0.134 | 0.655 | 0.46 | 0.349 | 0.26 | 0.197 | 0.713 | 0.704 | 0.46 | 0.187 | 0.156
12 | NCI-H1734 | 0.795 | 0.826 | 0.874 | 0.779 | 0.831 | 0.9 | 0.75 | 0.931 | 0.865 | 0.771 | 1.01 | 0.877 | 0.885 | 0.78 | 0.781 | 0.675 | 0.747 | 0.735 | 0.697 | 0.671
13 | NCI-H520 | 0.807 | 0.707 | 0.639 | 0.698 | 0.717 | 0.983 | 0.998 | 0.992 | 0.931 | 0.802 | 1.21 | 1.15 | 1.02 | 1.1 | 1.11 | 1.07 | 0.903 | 1.02 | 1.01 | 0.872
14 | EPLC-272H | 0.402 | 0.387 | 0.347 | 0.448 | 0.273 | 1.14 | 0.926 | 0.832 | 0.776 | 0.736 | 1.21 | 0.944 | 0.911 | 0.742 | 0.868 | 0.775 | 0.818 | 0.737 | 0.691 | 0.731
15 | UMC-11 | 0.378 | 0.361 | 0.347 | 0.416 | 0.364 | 0.996 | 0.973 | 1.04 | 0.97 | 1.04 | 0.361 | 0.305 | 0.294 | 0.296 | 0.293 | 1 | 1.03 | 0.953 | 0.963 | 1.13
16 | NCI-H1993 | 0.662 | 0.437 | 0.731 | 0.466 | 0.541 | 0.714 | 0.736 | 0.803 | 0.822 | 0.696 | 0.674 | 0.722 | 0.735 | 0.788 | 0.704 | 0.608 | 0.771 | 0.721 | 0.765 | 0.705
